Results from patent US11802127B2, “3,4-dihydro-2,7-naphthyridine-1,6(2H,7H)-diones as MEK inhibitors” (Pfizer Inc., priority 2021, dated 2023).

Key:
[1] = test system: ERK1/2(Thr202/Tyr204) phosphorylation (MEK-dependent) in A375 cells; experiment: Cellular Phospho-p44/42 MAPK (Erk1/2) (Thr202/Tyr204) Assay; assay type: cell-based; conditions: Homo sapiens, A-375, 1-hour incubation, pERK1/2 (Thr202/Tyr204) In-Cell Western normalized to GAPDH
Method in brief: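 A375 cells exposed 1 h to 10-point 1:3 dilutions (top 20–1 μM, 0.5% DMSO), then fixed and stained for pERK1/2 (Thr202/Tyr204) by In-Cell Western. Signal normalized to GAPDH per well; DMSO and 1 μM reference inhibitor define 0 and 100% inhibition.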

[2] = PK (Free Brain-to-Free Plasma Ratio) (Mouse); assay type: in vivo; conditions: brain and plasma, male CD-1 mice, oral gavage 10 mg/kg, sampling 2, 4, 8, 12 and 24 hours, (B/P)*(Bfu/Pfu)
Description: The ability of representative compounds to penetrate the BBB in mice was determined by evaluating the unbound brain-to-unbound plasma (also referred to as free brain-to-free plasma) concentration ratio in male CD-1 mice.
Brain compound levels were generated from oral mouse PK dosing with typical sampling times of 2, 4, 8, 12 and 24 hours post oral gavage dosing at 10 mg/kg. Brain samples were stored at −20±5° C. prior to analysis. Concentrations of test compound in mouse brain homogenate were determined by liquid chromatography tandem mass spectrometry (LC-MS/MS) following protein precipitation with acetonitrile. A 12-point calibration curve, ranging from 0.5 to 10,000 ng/mL, was prepared in duplicate. A solution of 400 μg/mL of test compound in dimethyl sulfoxide (DMSO) was serially diluted (3-fold) in 100% DMSO, and then 2.5 μL of each standard solution was added to 100 μL of naïve male CD-1 mice brain homogenate. To mimic the extraction in the standard curve, 2.5 μL of DMSO was added to all test samples. Both calibration and test brain homogenate samples were spiked with 10 μL of an IS (1 μg/mL of a structural analog). Brain homogenate was generated by adding 0.75 mL of 4:1 water:MeOH to each brain sample followed by homogenization for 1 minute with bead beater tubes a 6 m/s using an MP Fast Prep-24®. Proteins were precipitated from 100 μL of brain homogenate sample by the addition of 300 μL of acetonitrile. Samples were vortex-mixed for 5 minutes and spun in an Allegra X-12R centrifuge (Beckman Coulter, Fullerton, CA; SX4750A rotor) for 15 min at about 1,500×g at 4° C. A 100 μL aliquot of each supernatant was transferred via a 550 μL Personal Pipettor (Apricot Designs, Monrovia, CA) to 96-well plates and diluted 1:1 with HPLC grade water. The resulting plates were sealed with aluminum for LC-MS/MS analysis.
Brain-to-plasma ratios were calculated using the concentration of compound measured in the brain divided by the concentration of compound measured in the plasma. Brain-to-plasma ratios were always generated from a single animal and time point. Free brain-to-free plasma ratios were calculated by multiplying the brain-to-plasma ratio by the in vitro brain homogenate free fraction divided by the in vitro plasma free fraction using the following equation: (B/P)*(Bfu/Pfu).

Compound	IC50 [1]	Kp,uu (unbound brain-to-unbound plasma ratio) [2]
CSc1ccc(Nc2c3c(cc(=O)n2C)CCN(OCCO)C3=O)c(F)c1 [Example 6, 8-((2-fluoro-4-(methylthio)phenyl)amino)-2-(2-hydroxyethoxy)-7-methyl-3,4-dihydro-2,7-naphthyridine-1,6(2H,7H)-dione]	8 nM	0.88 to 1.26
Cn1c(Nc2ccc(Br)cc2F)c2c(cc1=O)CCN(OCCO)C2=O [Example 7, 8-((4-bromo-2-fluorophenyl)amino)-2-(2-hydroxyethoxy)-7-methyl-3,4-dihydro-2,7-naphthyridine-1,6(2H,7H)-dione]	23 nM	0.62 to 1.06
Cn1c(Nc2ccc(I)cc2F)c2c(cc1=O)CCN(OCCO)C2=O [Example 8, 8-((2-fluoro-4-iodophenol)amino)-2-(2-hydroxyethoxy)-7-methyl-3,4-dihydro-2,7-naphthyridine-1,6(2H,7H)-dione]	1 nM	1.01 to 16.1
CCc1ccc(Nc2c3c(cc(=O)n2C)CCN(OCCO)C3=O)c(F)c1 [Example 14, 8-((4-ethyl-2-fluorophenyl)amino)-2-(2-hydroxyethoxy)-7-methyl-3,4-dihydro-2,7-naphthyridine-1,6(2H,7H)-dione]	15 nM	0.57 to 1.58
Cn1c(Nc2ccc(OC(F)F)cc2F)c2c(cc1=O)CCN(OCCO)C2=O [Example 22, 8-((4-(difluoromethoxy)-2-fluorophenyl)amino)-2-(2-hydroxyethoxy)-7-methyl-3,4-dihydro-2,7-naphthyridine-1,6(2H,7H)-dione]	21 nM	0.33 to 2.92
Cc1c2c(c(Nc3ccc(Br)cc3F)n(C)c1=O)C(=O)N(OCCO)CC2 [Example 36, 8-((4-bromo-2-fluorophenyl)amino)-2-(2-hydroxyethoxy)-5,7-dimethyl-3,4-dihydro-2,7-naphthyridine-1,6(2H,7H)-dione]	30 nM	0.83 to 2.09
